In patent US8962831B2, “Tyrosine kinase inhibitors” (Principia Biopharma Inc., priority 2011, dated 2015):

Columns and labels:
human recombinant Btk = human recombinant Btk (Homo sapiens, UniProt Q06187); experiment: Btk enzymatic activity assay (Caliper-based kinase assay); type: biochemical; conditions: human recombinant Btk 2 nM, ATP 40 μM, room temperature 3 h
Description: A Caliper-based kinase assay (Caliper Life Sciences, Hopkinton, Mass.) was used to measure inhibition of Btk kinase activity of a compound of Formula (IA), (I′) or (I). […] The reaction was then terminated with EDTA, final concentration 20 mM and the phosphorylated reaction product was quantified on a Caliper Desktop Profiler (Caliper LabChip 3000). […] This value is presented as the IC50.

protein target = protein target (Homo sapiens, UniProt Q06187); experiment: Reversibility of binding (compound in solution before and after perturbation of the target, HPLC-MS/MS)
Description: The following approach was developed to differentiate compounds that form irreversible bonds with their targets, such as acrylamide compounds, from compound that bind reversibly. […] The reactions were then treated with perturbations including both denaturation with 5 M guanidine hydrochloride and digestion with trypsin, disrupting proper folding of the target. […] The concentration of compound in solution was assessed both preceding and following perturbation using high performance liquid chromatography (HPLC) coupled to tandem mass spectrometry.

Chain of human recombinant Btk (Q06187 whole entry): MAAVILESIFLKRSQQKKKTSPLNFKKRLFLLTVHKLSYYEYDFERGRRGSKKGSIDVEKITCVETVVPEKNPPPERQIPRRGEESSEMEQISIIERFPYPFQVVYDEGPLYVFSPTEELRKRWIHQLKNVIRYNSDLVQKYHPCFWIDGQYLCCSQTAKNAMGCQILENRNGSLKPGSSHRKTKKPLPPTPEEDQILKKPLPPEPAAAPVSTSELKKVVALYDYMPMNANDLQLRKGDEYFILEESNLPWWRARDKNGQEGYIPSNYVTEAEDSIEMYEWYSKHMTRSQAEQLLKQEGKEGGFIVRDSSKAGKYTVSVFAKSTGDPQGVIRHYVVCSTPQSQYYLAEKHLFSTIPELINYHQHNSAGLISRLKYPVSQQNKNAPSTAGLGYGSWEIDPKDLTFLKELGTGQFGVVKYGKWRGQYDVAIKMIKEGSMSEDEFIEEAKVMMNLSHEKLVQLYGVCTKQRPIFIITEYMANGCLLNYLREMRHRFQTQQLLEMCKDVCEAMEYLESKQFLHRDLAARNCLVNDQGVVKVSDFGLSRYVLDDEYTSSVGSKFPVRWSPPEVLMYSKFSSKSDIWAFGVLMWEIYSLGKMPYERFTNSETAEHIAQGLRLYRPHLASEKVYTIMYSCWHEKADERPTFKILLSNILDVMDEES
Chain of protein target (Q06187 2-659): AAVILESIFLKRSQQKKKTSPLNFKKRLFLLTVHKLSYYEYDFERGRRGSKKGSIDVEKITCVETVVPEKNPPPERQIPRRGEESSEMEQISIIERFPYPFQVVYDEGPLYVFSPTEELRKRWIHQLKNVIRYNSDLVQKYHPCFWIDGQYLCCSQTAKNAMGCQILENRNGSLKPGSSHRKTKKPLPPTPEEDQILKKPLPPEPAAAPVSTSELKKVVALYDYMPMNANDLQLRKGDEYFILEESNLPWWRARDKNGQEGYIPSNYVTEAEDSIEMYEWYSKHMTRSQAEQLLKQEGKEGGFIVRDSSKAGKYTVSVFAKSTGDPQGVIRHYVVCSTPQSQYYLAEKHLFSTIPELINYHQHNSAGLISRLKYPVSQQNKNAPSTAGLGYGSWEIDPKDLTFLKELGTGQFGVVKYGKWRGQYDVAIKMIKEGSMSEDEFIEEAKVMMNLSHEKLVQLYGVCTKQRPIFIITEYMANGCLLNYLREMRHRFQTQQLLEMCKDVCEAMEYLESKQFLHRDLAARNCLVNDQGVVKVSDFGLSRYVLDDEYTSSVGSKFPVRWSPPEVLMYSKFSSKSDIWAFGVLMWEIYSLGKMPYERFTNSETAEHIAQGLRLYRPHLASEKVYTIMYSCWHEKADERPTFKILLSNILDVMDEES

IC50 (human recombinant Btk; compounds of Cpd Table 2) [nM]	IC50 (human recombinant Btk; compounds of Cpd Table 1) [nM]	SMILES	also measured
> 1000	–	CC(C)(C)C=C(C#N)C(=O)NC1CCC(n2nc(-c3ccc(NC(=O)c4ccc(C(F)(F)F)cc4)cc3)c3c(N)ncnc32)CC1 (stereo not drawn) [Table 2-8, N-(4-(4-amino-1-((1r,4r)-4-(2-cyano-4,4-dimethylpent-2-enamido)cyclohexyl)-1H-pyrazolo[3,4-d]pyrimidin-3-yl)phenyl)-4-(trifluoromethyl)benzamide]	–
> 1000	–	CC(C)(C)C=C(C#N)C(=O)N1CCC(n2nc(-c3ccc(NC(=O)c4ccc(C(F)(F)F)cc4)cc3)c3c(N)ncnc32)CC1 [Table 2-6, N-(4-(4-amino-1-(1-(2-cyano-4,4-dimethylpent-2-enoyl)piperidin-4-yl)-1H-pyrazolo[3,4-d]pyrimidin-3-yl)phenyl)-4-(trifluoromethyl)benzamide]	–
–	365	COc1cc(-c2nn(C3CCN(C(=O)C(C#N)=CC4CC4)CC3)c3ncnc(N)c23)ccc1Oc1ccc(Cl)c(Cl)c1 [compound 6]	–
–	6	CC(Cn1nc(-c2ccc(Oc3ccccc3)cc2F)c2c(N)ncnc21)NC(=O)C(C#N)=CC(C)(C)N (stereo not drawn) [Example 195]	–
> 1000	–	N#CC(=CC1CC1)C(=O)N1CCC(n2nc(-c3ccc(NC(=O)c4ccc(C(F)(F)F)cc4)cc3)c3c(N)ncnc32)CC1 [Table 2-2, N-(4-(4-amino-1-(1-(2-cyano-3-cyclopropylacryloyl)piperidin-4-yl)-1H-pyrazolo[3,4-d]pyrimidin-3-yl)phenyl)-4-(trifluoromethyl)benzamide]	–
> 1000	–	CC(C)(C)C=C(C#N)C(=O)NC1CCC(n2nc(-c3ccc(NC(=O)c4ccc(C(F)(F)F)cc4)cc3)c3c(N)ncnc32)CC1 (stereo not drawn) [Table 2-10, N-(4-(4-amino-1-((1s,4s)-4-(2-cyano-4,4-dimethylpent-2-enamido)cyclohexyl)-1H-pyrazolo[3,4-d]pyrimidin-3-yl)phenyl)-4-(trifluoromethyl)benzamide]	–
62	–	N#CC(=CC1CC1)C(=O)N1CCCC(n2nc(-c3ccc(NC(=O)c4ccc(C(F)(F)F)cc4)cc3)c3c(N)ncnc32)C1 (stereo not drawn) [Table 2-1, N-(4-(4-amino-1-(1-(2-cyano-3-cyclopropylacryloyl)piperidin-3-yl)-1H-pyrazolo[3,4-d]pyrimidin-3-yl)phenyl)-4-(trifluoromethyl)benzamide]	–
13	–	CC(C)(C)C=C(C#N)C(=O)N1CCCC(n2nc(-c3ccc(NC(=O)c4ccc(C(F)(F)F)cc4)cc3)c3c(N)ncnc32)C1 (stereo not drawn) [Table 2-3, N-(4-(4-amino-1-(1-(2-cyano-4,4-dimethylpent-2-enoyl)piperidin-3-yl)-1H-pyrazolo[3,4-d]pyrimidin-3-yl)phenyl)-4-(trifluoromethyl)benzamide]	–
–	980	COc1cc(-c2nn(C3CCN(C(=O)C(C#N)=CC(C)(C)C)CC3)c3ncnc(N)c23)ccc1Oc1ccc(Cl)c(Cl)c1 [compound 9]	–
–	61	COc1cc(-c2nn(C3CCCN(C(=O)C(C#N)=CC4CC4)C3)c3ncnc(N)c23)ccc1Oc1ccc(Cl)c(Cl)c1 (stereo not drawn) [compound 4]	–
–	–	N#CC(=CC1CC1)C(=O)N1CCC[C@@H](n2cc(-c3ccc(Oc4ccccc4)cc3)c3c(N)ncnc32)C1 [Example 27, (R)-2-(3-(4-amino-5-(4-phenoxyphenyl)-7H-pyrrolo[2,3-d]pyrimidin-7-yl)piperidine-1-carbonyl)-3-cyclopropylacrylonitrile]	compound in solution following perturbation of the target (protein target; after 5 M guanidine hydrochloride denaturation and trypsin digestion): returned to solution; Compound in solution in the denatured or digested state? (protein target; after denaturation with 5 M guanidine hydrochloride and digestion with trypsin): yes; depletion of compound from solution in the native (folded) state (protein target; before perturbation): depleted; Compound in solution in the native state? (protein target; protein target at higher concentration than compound, before perturbation): no
–	14	N#CC(=CC1CC1)C(=O)NC1CCC(n2nc(-c3ccc(Oc4ccccc4)cc3)c3c(N)ncnc32)CC1 (stereo not drawn) [compound 11]	–
180	–	CC(C)(C)C=C(C#N)C(=O)N1CCCC1Cn1nc(-c2ccc(NC(=O)c3ccc(C(F)(F)F)cc3)cc2)c2c(N)ncnc21 (stereo not drawn) [Table 2-5, N-(4-(4-amino-1-((1-(2-cyano-4,4-dimethylpent-2-enoyl)pyrrolidin-2-yl)methyl)-1H-pyrazolo[3,4-d]pyrimidin-3-yl)phenyl)-4-(trifluoromethyl)benzamide]	–
–	1.3	CC(C)(C)C=C(C#N)C(=O)N1CCCC(n2nc(-c3ccc(Oc4ccccc4)cc3)c3c(N)ncnc32)C1 (stereo not drawn) [Example 7, 2-(3-(4-amino-3-(4-phenoxyphenyl)-1H-pyrazolo[3,4-d]pyrimidin-1-yl)piperidine-1-carbonyl)-4,4-dimethylpent-2-enenitrile]	–

SMILES	IC50 (human recombinant Btk; compounds of Cpd Table 2) [nM]	IC50 (human recombinant Btk; compounds of Cpd Table 1) [nM]	also measured
NC(=O)C(=CC1CC1)C(=O)N1CCC[C@@H](n2nc(-c3ccc(Oc4ccccc4F)cc3)c3c(N)ncnc32)C1 [Example 32A]	–	1.7	–
